Source: ChEMBL document CHEMBL1201862, “PubChem BioAssay data set” (2004)
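Grown in 96-well plates, cells were treated for 48 hours with each compound at five concentrations. Insufficient inhibition: endpoint recorded as highest concentration tested. GI50 marks 50% less growth.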 Active and inactive are the calls of the source. No stated cut-off is given here; in the data, active = GI50 up to about 1.1 µM and inactive = higher.

Columns and labels:
Experiment in all cases: NCI tumour cell line growth inhibition, 48 h
SW-620 = tested on: SW-620
A549 = tested on: A549
NCI/ADR-RES = tested on: NCI/ADR-RES
SN12C = tested on: SN12C
HL-60 = tested on: HL-60
SNB-75 = tested on: SNB-75
HCC 2998 = tested on: HCC 2998
UACC-62 = tested on: UACC-62
U-251 = tested on: U-251
PC-3 = tested on: PC-3
CAKI-1 = tested on: CAKI-1
NCI-H460 = tested on: NCI-H460
SF-268 = tested on: SF-268
SK-MEL-28 = tested on: SK-MEL-28
EKVX = tested on: EKVX
TK-10 = tested on: TK-10
SF-295 = tested on: SF-295
SR = tested on: SR
CCRF-CEM = tested on: CCRF-CEM
SNB-19 = tested on: SNB-19

| SMILES | GI50 (SW-620) | GI50 (A549) | GI50 (NCI/ADR-RES) | GI50 (SN12C) | GI50 (HL-60) | GI50 (SNB-75) | GI50 (HCC 2998) | GI50 (UACC-62) | GI50 (U-251) | GI50 (PC-3) | GI50 (CAKI-1) | GI50 (NCI-H460) | GI50 (SF-268) | GI50 (SK-MEL-28) | GI50 (EKVX) | GI50 (TK-10) | GI50 (SF-295) | GI50 (SR) | GI50 (CCRF-CEM) | GI50 (SNB-19) |
| --- | --- | --- | --- | --- | --- | --- | --- | --- | --- | --- | --- | --- | --- | --- | --- | --- | --- | --- | --- | --- |
| Cc1ccc(-n2cc(-c3ccc(Cl)cc3)c3c2N=CN2N=C(c4cccs4)NC32)cc1 (centres undefined) | 14.4 µM (inactive) | 21.9 µM (inactive) | 9.68 µM (inactive) | 10.1 µM (inactive) | 19.1 µM (inactive) | 8.38 µM (inactive) | 57 µM (inactive) | 23.2 µM (inactive) | 4.81 µM (inactive) | 16.5 µM (inactive) | 16 µM (inactive) | 5.31 µM (inactive) | 17.8 µM (inactive) | > 100 µM (inactive) | 18.1 µM (inactive) | 11.2 µM (inactive) | 9.18 µM (inactive) | 7.64 µM (inactive) | 11.2 µM (inactive) | 17.9 µM (inactive) |
| CCN(CC)CCOc1ccc(N2Cc3ccccc3C2=O)cc1 | > 10 µM (inactive) | > 10 µM (inactive) | > 10 µM (inactive) | > 10 µM (inactive) | > 10 µM (inactive) | > 10 µM (inactive) | > 10 µM (inactive) | > 10 µM (inactive) | > 10 µM (inactive) | > 10 µM (inactive) | > 10 µM (inactive) | 7.28 µM (inactive) | > 10 µM (inactive) | > 10 µM (inactive) | > 10 µM (inactive) | > 10 µM (inactive) | > 10 µM (inactive) | > 10 µM (inactive) | > 10 µM (inactive) | > 10 µM (inactive) |
| O=c1c2ccccc2nc(N/N=C/c2ccc(Cl)cc2)n1-c1ccccc1 | > 100 µM (inactive) | > 100 µM (inactive) | > 100 µM (inactive) | > 100 µM (inactive) | > 100 µM (inactive) | 0.0269 µM (active) | > 100 µM (inactive) | > 100 µM (inactive) | 46.6 µM (inactive) | 49.5 µM (inactive) | > 100 µM (inactive) | 75 µM (inactive) | 80.2 µM (inactive) | > 100 µM (inactive) | > 100 µM (inactive) | > 100 µM (inactive) | > 100 µM (inactive) | > 100 µM (inactive) | > 100 µM (inactive) | 36.5 µM (inactive) |
| CCOc1ccccc1/N=N/C1C(=O)N(C(=O)CC(=O)Nc2ccccc2C)N=C1C (centres undefined) | > 100 µM (inactive) | 89.7 µM (inactive) | 54.6 µM (inactive) | > 100 µM (inactive) | > 100 µM (inactive) | 24.2 µM (inactive) | > 100 µM (inactive) | 21.3 µM (inactive) | 19.4 µM (inactive) | > 100 µM (inactive) | > 100 µM (inactive) | 43.7 µM (inactive) | 19.6 µM (inactive) | > 100 µM (inactive) | 0.984 µM (active) | 52.4 µM (inactive) | 15.9 µM (inactive) | > 100 µM (inactive) | > 100 µM (inactive) |  |
| Cc1ccc(/C=N/NS(=O)(=O)c2ccc(/C=C3\NC(=O)NC3=O)cc2)cc1 | > 100 µM (inactive) | > 100 µM (inactive) | 75.7 µM (inactive) | > 100 µM (inactive) | > 100 µM (inactive) | 18.2 µM (inactive) | > 100 µM (inactive) | > 100 µM (inactive) | 40.8 µM (inactive) | > 100 µM (inactive) | > 100 µM (inactive) | > 100 µM (inactive) | 22.1 µM (inactive) | > 100 µM (inactive) | 64.9 µM (inactive) | > 100 µM (inactive) | 46.7 µM (inactive) | 31.6 µM (inactive) | > 100 µM (inactive) | 31 µM (inactive) |
| O=C1NC(=S)N(c2cccc3ccccc23)C(=O)/C1=C/c1c[nH]c2ccccc12 | 2.25 µM (inactive) | 5.12 µM (inactive) | 3 µM (inactive) | 2.02 µM (inactive) | 2.21 µM (inactive) | 2.43 µM (inactive) | 1.87 µM (inactive) | 1.7 µM (inactive) | 2.22 µM (inactive) | 2.36 µM (inactive) | 2.54 µM (inactive) | 2.36 µM (inactive) | 2.64 µM (inactive) | 2.26 µM (inactive) | 2.06 µM (inactive) | 2.67 µM (inactive) | 3.07 µM (inactive) | 1.41 µM (inactive) | 1.76 µM (inactive) | 3.08 µM (inactive) |
| Nn1c(=O)[nH]c2ncn(Cc3ccccc3)c2c1=O | > 100 µM (inactive) | > 100 µM (inactive) | > 100 µM (inactive) | > 100 µM (inactive) | > 100 µM (inactive) | > 100 µM (inactive) | > 100 µM (inactive) | > 100 µM (inactive) | > 100 µM (inactive) | > 100 µM (inactive) | > 100 µM (inactive) | > 100 µM (inactive) | > 100 µM (inactive) | > 100 µM (inactive) | > 100 µM (inactive) | > 100 µM (inactive) | > 100 µM (inactive) | > 100 µM (inactive) | > 100 µM (inactive) | > 100 µM (inactive) |
| CC(=O)Nc1ccc2c3c(cc(O)c2c1)N(C(=O)CCCC(=O)Nc1ccc2c4c(cc(O)c2c1)N(C(=O)OC(C)(C)C)CC4CCl)CC3CCl (centres undefined) | 1.82 µM (inactive) | 9.4 µM (inactive) | > 50 µM (inactive) | 1.57 µM (inactive) | 0.118 µM (active) | 1.99 µM (inactive) | 0.771 µM (active) | 0.998 µM (active) | 0.841 µM (active) | 1.27 µM (inactive) | > 50 µM (inactive) | 1.48 µM (inactive) | 0.195 µM (active) | 1.91 µM (inactive) | 5.24 µM (inactive) | 7.6 µM (inactive) | 13.4 µM (inactive) | 0.0221 µM (active) | 0.108 µM (active) | 1.24 µM (inactive) |
| C[N+]1(CCC(=O)c2ccccc2)CCC2CCC(C2)C1 (centres undefined) | > 100 µM (inactive) | > 100 µM (inactive) | > 100 µM (inactive) | > 100 µM (inactive) | > 100 µM (inactive) | > 100 µM (inactive) | > 100 µM (inactive) | > 100 µM (inactive) | > 100 µM (inactive) | > 100 µM (inactive) | > 100 µM (inactive) | > 100 µM (inactive) | > 100 µM (inactive) | > 100 µM (inactive) | > 100 µM (inactive) | > 100 µM (inactive) | > 100 µM (inactive) | > 100 µM (inactive) | > 100 µM (inactive) | > 100 µM (inactive) |
| CCOP(=O)(OCC)C1=C(c2ccccc2)OC(N)=C(C#N)C1c1ccc(Cl)cc1 (centres undefined) | > 100 µM (inactive) | > 100 µM (inactive) | > 100 µM (inactive) | > 100 µM (inactive) | > 100 µM (inactive) | > 100 µM (inactive) | 79.3 µM (inactive) | > 100 µM (inactive) | > 100 µM (inactive) | > 100 µM (inactive) | > 100 µM (inactive) | > 100 µM (inactive) | 38.1 µM (inactive) | > 100 µM (inactive) | > 100 µM (inactive) | > 100 µM (inactive) | > 100 µM (inactive) | > 100 µM (inactive) | 30.1 µM (inactive) | > 100 µM (inactive) |
| O=[N+]([O-])c1ccc2c(/N=N/c3c(O)ccc4ccccc34)c(O)cc(S(=O)(=O)O)c2c1 | 13.8 µM (inactive) | 15.4 µM (inactive) | 6.92 µM (inactive) | 25.6 µM (inactive) | 1.09 µM (active) | 21.9 µM (inactive) | 63.1 µM (inactive) | 2.51 µM (inactive) | 3.45 µM (inactive) | 6.98 µM (inactive) | 4.86 µM (inactive) | 44.4 µM (inactive) | 7.31 µM (inactive) | 10.1 µM (inactive) | > 50 µM (inactive) | 37.1 µM (inactive) | 13.3 µM (inactive) | 26.2 µM (inactive) | 0.869 µM (active) | 15 µM (inactive) |
| COc1ccc(C(C)NNC(=O)c2cc[n+]([BH2-]C#N)cc2)cc1OC (centres undefined) | > 100 µM (inactive) | > 100 µM (inactive) | > 100 µM (inactive) | > 100 µM (inactive) | > 100 µM (inactive) | > 100 µM (inactive) | > 100 µM (inactive) | > 100 µM (inactive) | > 100 µM (inactive) | > 100 µM (inactive) | > 100 µM (inactive) | > 100 µM (inactive) | > 100 µM (inactive) | > 100 µM (inactive) | > 100 µM (inactive) | > 100 µM (inactive) | > 100 µM (inactive) | > 100 µM (inactive) | > 100 µM (inactive) | > 100 µM (inactive) |
| CC[C@@]1(O)C(=O)OCc2c1cc1n(c2=O)Cc2cc3cc4c(cc3nc2-1)OCO4 | 0.0032 µM (active) | 0.00144 µM (active) | 0.00175 µM (active) | < 0.001 µM (active) | 0.00133 µM (active) | 0.00148 µM (active) | 0.0238 µM (active) | < 0.001 µM (active) | < 0.001 µM (active) | 0.00746 µM (active) | 0.00173 µM (active) | < 0.001 µM (active) | < 0.001 µM (active) | 0.0188 µM (active) | 0.0881 µM (active) | 0.502 µM (active) | < 0.001 µM (active) | < 0.001 µM (active) | < 0.001 µM (active) | 0.00152 µM (active) |
| O=C(O)COc1cc(-c2ccccc2)nc2ccccc12 | 59.7 µM (inactive) | 66.4 µM (inactive) | 52.1 µM (inactive) | > 100 µM (inactive) | 41.2 µM (inactive) | 41.5 µM (inactive) | > 100 µM (inactive) | > 10 µM (inactive) | 71.9 µM (inactive) | > 100 µM (inactive) | > 100 µM (inactive) | 48 µM (inactive) | > 100 µM (inactive) | 73.3 µM (inactive) | > 100 µM (inactive) | > 100 µM (inactive) | 44.4 µM (inactive) | 63 µM (inactive) | 56.2 µM (inactive) | 98.4 µM (inactive) |
